For one data set, the system named is Male Sprague Dawley rats. Description: Post-surgical pain model (hind paw incision): resting pain, cumulative pain score. Type of data set: in vivo. The conditions noted are these: rat. The method, then:
We used a pain model that mimics post surgical pain to assess the efficacy of treatment with anti-NGF antibody 911 (a mouse monoclonal antibody; see Hongo, et al., Hybridoma 19:215-227 (2000). Each experiment involved 16 animals (n=8 per group). The anti-NGF antibody was injected intra peritoneal (i.p.) at various concentratiosn per experiment (35 or 7 milligrams per kilogram) 15 hours pre-incision. The control group received no antibody but was injected i.p. with a saline solution.
Animals. Male Sprague Dawley rats weighting between 220-240 grams were purchased from Harlan (San Diego) and acclimated to the animal facility for one week prior to surgery.
Surgery. The surgery was based on the procedure described by Brennan, et al. Pain 64:493-501 (1996). Animals were anesthetized with a 2% isoflurane in air mixture that was maintained during surgery via a nose cone. The plantar surface of the right hind paw was prepared with a povidone-iodine pad, and a 1-cm central longitudinal incision was made through skin and fascia, starting 0.5 cm from the edge of the heel and extending toward the toes. Measurements were made with a ruler with the foot held in a flexed position. The plantaris muscle was elevated using curved forceps and incised longitudinally. The muscle was incised through its full depth, between the origin and insertion. Bleeding was controlled throughout surgery by pressure applied through a gauze pad. The wound was closed with two mattress sutures (5-0 ethilon black monofilament). These sutures were knotted 5-6 times, with the first knot loosely tied. The wound site was swabbed with bacitracin solution. Animals were allowed to recover and rest in clean cages for two hours or more before behavioral testing began.
Evaluating resting pain. A cumulative pain score was used to assess pain related to weight bearing. Animals were placed on a plastic mesh (grid: 8 mm^2) in clear plastic cages that were elevated on a platform (h: 18″) allowing inspection of the underside of their paws. After a 20 minute acclimation period, weight bearing was assessed on a scale of 0 to 2. A score of 0 was given if the paw was blanched or pressed against the mesh, indicating full weight bearing. A score of 1 was given if the paw was favored with the skin just touching the mesh, with no blanching or indentation of the skin. A score of 2 was given if the paw was held completely off the mesh. Flinching the paw was considered a 2 if the rat was still at rest. […] The sum of 6 scores (0-12) obtained during ½ hour was used to assess pain in the incised foot. Frequency of scores of 2 was also calculated and used to assess the incidence of severe pain or total guarding of the paw by the animal. Each animal was tested 24 hours before surgery (baseline), and 2 h, 24 h, 48 h, and 72 h postoperatively. […]

The subject of the next data set is Male Sprague-Dawley rats. Description: Wound healing after dorsal skin incision: proportion of intact wounds. Type of data set: in vivo. The conditions noted are these: rat, 5 mg/kg daily for five days intramuscularly, positive control; p<0.0005 vs saline or 911; FIG. 8. The source says:
Male Sprague-Dawley rats weighing 250-350 grams were purchased from Harlan (Wisconsin) were brought into the facility and acclimated for at least one week. Animals were anaesthetized with isoflurane and the dorsal surface (back) was shaved and cleaned with povidone iodine followed by an alcohol pad. A 2.5 cm incision through the skin was made on the midline between the scapulae. Bleeding was controlled with pressure with a gauze pad. The wound was closed with four single 4-0 ethilon sutures and the animals were allowed to recover. Animals were then divided into three groups: one group receiving a single does of mouse monoclonal anti-NGF antibody 911 at the time of surgery (1 mg/kg, i.p.); one group receiving Ketorolac (5 mg/kg daily for five days starting the day of surgery, intramuscularly (IMO) as a positive control; and a saline treated control group (negative control). Ketoralac is known to inhibit wound healing. Haws et al. (1996) Ann Plast Surg. 37(2):147-51; Gerstenfeld et al. (2003) J Orthop Res. 21(4):670-5.
The area of the incision was examined and photographed daily starting at day one post surgery. […] Incisions were scored as “intact” if the entire incision remained closed, and “failed” if some or all of the incision re-opened. Results were expressed as the proportion of intact wounds (i.e., the number of intact wounds divided by the total number of animals scored).

Another data set addresses T1, human NGF (human, UniProt P01138 122-239, limits assumed).
T1 construct: also called hNGF; human nerve growth factor
Description: binding affinity; method not given.

Data on 4 molecules can be found in US7252822B2, “Methods for treating post-surgical pain by administering an anti-nerve growth factor antagonist” (Rinat Neuroscience Corp., priority 2002, dated 2007).

T1 sequence (P01138 122-239 limits assumed): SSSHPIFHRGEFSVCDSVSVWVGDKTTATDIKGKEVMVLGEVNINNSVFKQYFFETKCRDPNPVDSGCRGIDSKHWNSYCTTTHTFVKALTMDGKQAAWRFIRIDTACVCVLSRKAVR

For the molecule `COC(=O)[C@@]1(O)C[C@H]2O[C@]1(C)n1c3ccccc3c3c4c(c5c6ccccc6n2c5c31)C(=O)NC4` [K252a], in the data set on Male Sprague Dawley rats (in vivo, ip, 4 mg/kg), the “cumulative resting pain score three hours after dosing” value is listed as “significantly reduced resting pain” and the “resting pain reduction compared with anti-NGF antibody in similar experiments” value was “reduced resting pain to the same extent that treatment with anti-NGF antibody did”. For `O=C(c1ccccc1)c1ccc2n1CCC2C(=O)O` (stereo not drawn) [ketorolac], in the data set with Male Sprague-Dawley rats, the “wound healing (proportion of intact wounds)” value is “significantly inhibited”.

B1: humanized anti-NGF antibody E3 (antibody, V domains shown)
VH: QVQLQESGPGLVKPSETLSLTCTVSGFSLIGYDLNWIRQPPGKGLEWIGIIWGDGTTDYNSAVKSRVTISKDTSKNQFSLKLSSVTAADTAVYYCARGGYWYATSYYFDYWGQGTLVTVS
VL: DIQMTQSPSSLSASVGDRVTITCRASQSISNNLNWYQQKPGKAPKLLIYYTSRFHSGVPSRFSGSGSGTDFTFTISSLQPEDIATYYCQQEHTLPYTFGQGTKLEIKR
On to B1, for which the Kd with human NGF is ~0.07 nM.

B2: E3: humanized mouse anti-NGF monoclonal antibody; human IgG2a constant region with A330P331 to S330S331, kappa light chain, variable regions SEQ ID NO:1 and 2 (antibody, V domains shown)
VH: B1 VH
VL: DIQMTQSPSSLSASVGDRVTITCRASQSISNNLNWYQQKPGKAPKLLIYYTSRFHSGVPSRFSGSGSGTDFTFTISSLQPEDIATYYCQQEHTLPYTFGQGTKLEIKRT
For the molecule B2, the “resting pain (cumulative pain score) 24 hours after surgery” value in the data set on Male Sprague Dawley rats (0.02 mg/kg to 1 mg/kg i.p. 15 hours pre-incision, p<0.05 vs saline, FIG. 4) is given as “significantly reduced resting pain”; in the data set with Male Sprague Dawley rats (0.5 mg/kg i.v. two hours after incision, vs saline, FIG. 5), “significantly (p<0.05) reduced resting pain”.

The Kd is the constant that tells how readily two partners part at equilibrium. A high value points to weaker binding.
